Source: patent publication US20210363486A1, “CARDIOMYOCYTE PROLIFERATION PROMOTING AGENT AND USE THEREOF” (KYOTO UNIVERSITY, priority 2018, published 2021)

How the values were obtained:
[1] = system: iPS cell-derived cardiomyocytes; test: Screening for cardiomyocyte proliferation agent based on cell cycle activation (Fucci green fluorescence and cell number); parameters: species or system human; details: compounds administered on day 22 after differentiation induction, evaluated on day 25; 384-well plate, 2500 cells per well
Excerpt: The Fucci gene (Cell. 2008 Feb. 8; 132 (3): 487-98.) was constitutively expressed under the CAG promoter using the PiggyBac transposon vector system (System Biosciences) in a healthy human-derived iPS cell line.
The Fucci gene-introduced iPS cell line was induced to differentiate into cardiomyocytes by the embryoid body method described in Funakoshi, S. et al. Sci Rep 8, 19111 […], cardiomyocytes were extracted using a cell sorter on day 20 after induction, and then seeded into a 384-well plate at 2500 cells per well.
On day 22 after differentiation induction, about 4000 types of compounds were administered, and on day 25, the reactivity of the proliferative capacity of iPS cell-derived cardiomyocytes to the drugs was evaluated based on the intensity of Fucci's green fluorescence and the number of cells.
The Fucci reporter emits orange fluorescence in the G1/G0 phase and green fluorescence in the S/G2/M phase of the cell cycle. Since the cell cycle of undifferentiated human iPS cells is activated, most cells emit green fluorescence. However, when these iPS cells are differentiated into cardiomyocytes, the cell cycle usually stops and most cells turn red.

[2] = system: myocardial infarction model immunodeficient mouse (NRG mouse); test: Engraftment efficiency of transplanted cardiomyocytes by in vivo optical imaging (IVIS); details: cardiomyocytes treated with 1 μM for 48 hours from day 18, intramyocardial injection; compared to DMSO treatment group; FIG. 4
Method: Cardiomyocytes were induced to differentiate from iPS cells (Funakoshi, S. et al. Sci Rep 8, 19111 (2016)) derived from a healthy individual, which constantly express luciferase, by the method described in this document. The cardiomyocytes were treated with AM80 (1 μM) for 48 hours from day 18 after differentiation induction. Cardiomyocytes were extracted by flow cytometry, and then transplanted (1000,000 cells) into a myocardial infarction model immunodeficient mouse (NRG mouse with the left anterior descending coronary artery ligated) by intramyocardial injection.

[3] = system: cardiomyocytes on day 18 of differentiation induction; test: Flow cytometry of Fucci green fluorescent cardiomyocytes after AM80 administration; assay type: cell-based, human; details: 1 μM, flow cytometry 48 hours later; vs Control (DMSO); FIG. 1 and FIG. 2
Method: 1 μM AM80 was administered to cardiomyocytes on day 18 of differentiation induction and then analysis was conducted by flow cytometry 48 hours later.

[4] = system: human iPS cell-derived cardiomyocytes; test: EdU assay cell proliferation analysis; assay type: cell-based; details: 1 μM for 48 hours from day 18; compared to control group (DMSO-treated group); FIG. 3
Method: Further, human iPS cell-derived cardiomyocytes on day 18 after differentiation induction were treated with AM80 (1 μM) for 48 hours, and cell proliferation analysis was performed using EdU assay. […] For the EdU assay, Click-it EdU Pacific Blue flow cytometry assay kit, catalog number C10418 (Invitrogen) was used.

SMILES	proliferation and cell division of iPS cell-derived cardiomyocytes (Fucci's green fluorescence intensity and number of cells) [1]	further results
CC(C)(C)NS(=O)(=O)c1cncc(-c2cc(F)c3nc(N)nn3c2)c1 [CZC24832]	promote the proliferation and cell division	–
O=C1NC(=O)C(=Cc2ccc(-c3ccc(F)cc3)o2)S1 (stereo in doubt) [CAY10505]	promote the proliferation and cell division	–
CC1(C)CCC(C)(C)c2cc(C(=O)Nc3ccc(C(=O)O)cc3)ccc21 [AM580]	promote the proliferation and cell division	–
O=C(O)c1ccc2cc(-c3ccc(O)c(C45CC6CC(CC(C6)C4)C5)c3)ccc2c1 [CD437]	promote the proliferation and cell division	–
CC1(C)CCC(C)(C)c2cc(NC(=O)c3ccc(C(=O)O)cc3)ccc21 [AM80]	promote the proliferation and cell division	engraftment efficiency of transplanted cardiomyocytes [2]: significant improvement; green fluorescent cells (activation of cell cycle) [3]: significant increase; cell proliferation activity (EdU assay) [4]: significant increase
CC1=C(/C=C/C(C)=C/C=C/C(C)=C/C(=O)O)C(C)(C)CCC1 [All trans retinoic acid]	promote the proliferation and cell division	–
Cc1ccccc1C(C(=O)NC1CCCCC1)N(C(=O)Cn1ccnc1C)c1cccc(F)c1 (centres unmarked) [AGI5198, N-[2-(cyclohexylamino)-1-(2-methylphenyl)-2-oxoethyl]-N-(3-fluorophenyl)-2-methyl-1H-imidazole-1-acetamide]	promote the proliferation and cell division	–
CC(C)(C)c1cc(C(=O)/C=C/c2ccc(C(=O)O)cc2)cc(C(C)(C)C)c1 [CH55]	promote the proliferation and cell division	–
